# Data reported in ChEMBL document CHEMBL3826952, “Design and Synthesis of 2-Alkylpyrimidine-4,6-diol and 6-Alkylpyridine-2,4-diol as Potent GPR84 Agonists” (ACS Med Chem Lett, 2016).
# Active and inactive are the calls of the source. The calls are words filed in the database; no cut-off is given here.
# Legend:
# [1] = biological target: G-protein coupled receptor 84 (Homo sapiens, UniProt Q9NQS5); assay: Agonist activity at GPR84 (unknown origin) expressed in HEK293 cells coexpressing Galpha16 protein by Fluo-4 AM dye based calcium mobilization assay; format: functional, cell-based
# [2] = biological target: T1, Glucose-dependent insulinotropic receptor (Homo sapiens, UniProt Q8TDV5); assay: Agonist activity at GPR119 (unknown origin) by Fluo-4 AM dye based calcium mobilization assay; format: functional
# T1 sequence (Q8TDV5 whole entry): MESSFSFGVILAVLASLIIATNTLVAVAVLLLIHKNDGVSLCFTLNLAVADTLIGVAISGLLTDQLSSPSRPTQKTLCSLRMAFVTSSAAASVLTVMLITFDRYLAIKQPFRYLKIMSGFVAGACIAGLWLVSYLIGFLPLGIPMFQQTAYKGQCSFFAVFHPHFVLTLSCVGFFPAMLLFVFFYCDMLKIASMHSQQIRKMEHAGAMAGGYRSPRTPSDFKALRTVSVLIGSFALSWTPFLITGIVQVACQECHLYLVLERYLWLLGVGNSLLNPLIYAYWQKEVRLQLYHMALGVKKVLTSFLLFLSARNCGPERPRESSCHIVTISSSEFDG
# [3] = biological target: T2, Free fatty acid receptor 1 (Homo sapiens, UniProt O14842); assay: Agonist activity at GPR40 (unknown origin) up to 100 uM by Fluo-4 AM dye based calcium mobilization assay; format: functional
# [4] = biological target: T3, Free fatty acid receptor 3 (Homo sapiens) (UniProt O14843); assay: Agonist activity at GPR41 (unknown origin) up to 100 uM by Fluo-4 AM dye based calcium mobilization assay; format: functional
# T3 sequence (whole entry): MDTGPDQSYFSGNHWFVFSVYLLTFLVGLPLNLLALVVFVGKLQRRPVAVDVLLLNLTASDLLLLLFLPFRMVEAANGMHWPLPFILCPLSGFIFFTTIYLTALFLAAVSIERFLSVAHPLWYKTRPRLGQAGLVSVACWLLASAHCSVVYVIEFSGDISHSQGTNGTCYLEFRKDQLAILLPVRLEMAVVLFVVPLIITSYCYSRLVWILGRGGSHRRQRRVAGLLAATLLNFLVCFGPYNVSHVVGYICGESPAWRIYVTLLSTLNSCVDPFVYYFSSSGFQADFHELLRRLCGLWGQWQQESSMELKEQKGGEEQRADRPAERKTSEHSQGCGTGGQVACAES
# [5] = biological target: T4, Glucose-dependent insulinotropic receptor (Homo sapiens) (UniProt Q8TDV5); assay: Agonist activity at GPR119 (unknown origin) up to 100 uM by Fluo-4 AM dye based calcium mobilization assay; format: functional
# T4 sequence (whole entry): T1 sequence (Q8TDV5 whole entry)
# [6] = biological target: T5, Free fatty acid receptor 4 (Homo sapiens) (UniProt Q5NUL3); assay: Agonist activity at GPR120 (unknown origin) up to 100 uM by Fluo-4 AM dye based calcium mobilization assay; format: functional
# T5 sequence (whole entry): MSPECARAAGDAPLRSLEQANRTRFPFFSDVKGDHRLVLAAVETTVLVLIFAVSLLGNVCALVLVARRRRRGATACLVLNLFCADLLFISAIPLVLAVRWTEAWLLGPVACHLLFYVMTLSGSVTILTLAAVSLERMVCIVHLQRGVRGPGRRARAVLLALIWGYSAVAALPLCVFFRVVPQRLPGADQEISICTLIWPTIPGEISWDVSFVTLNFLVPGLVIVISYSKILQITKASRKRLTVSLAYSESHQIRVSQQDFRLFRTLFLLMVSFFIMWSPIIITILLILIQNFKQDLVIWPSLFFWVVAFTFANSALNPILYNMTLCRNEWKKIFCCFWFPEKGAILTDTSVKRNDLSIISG
# [7] = Cmax in ICR mouse plasma at 10 mg/kg, po administered through gavage measured up to 24 hrs post dose by LC-MS/MS analysis; format: ADME, organism-based; set-up: dose 10 mg/kg, route oral
# [8] = AUC (0 to t) in ICR mouse plasma at 10 mg/kg, po administered through gavage measured up to 24 hrs post dose by LC-MS/MS analysis; format: ADME, organism-based; set-up: time < 24 hr, dose 10 mg/kg, route oral
# [9] = Oral bioavailability in ICR mouse at 10 mg/kg administered through gavage measured up to 24 hrs post dose by LC-MS/MS analysis; format: ADME, organism-based; conditions: in vivo
# [10] = biological target: T6, Free fatty acid receptor 3 (Homo sapiens, UniProt O14843); assay: Agonist activity at GPR41 (unknown origin) by Fluo-4 AM dye based calcium mobilization assay; format: functional
# T6 sequence (O14843 whole entry): T3 sequence (whole entry)
# [11] = biological target: T2, Free fatty acid receptor 1; assay: Agonist activity at GPR40 (unknown origin) by Fluo-4 AM dye based calcium mobilization assay; format: functional
# Sequence of G-protein coupled receptor 84 (Q9NQS5 whole entry): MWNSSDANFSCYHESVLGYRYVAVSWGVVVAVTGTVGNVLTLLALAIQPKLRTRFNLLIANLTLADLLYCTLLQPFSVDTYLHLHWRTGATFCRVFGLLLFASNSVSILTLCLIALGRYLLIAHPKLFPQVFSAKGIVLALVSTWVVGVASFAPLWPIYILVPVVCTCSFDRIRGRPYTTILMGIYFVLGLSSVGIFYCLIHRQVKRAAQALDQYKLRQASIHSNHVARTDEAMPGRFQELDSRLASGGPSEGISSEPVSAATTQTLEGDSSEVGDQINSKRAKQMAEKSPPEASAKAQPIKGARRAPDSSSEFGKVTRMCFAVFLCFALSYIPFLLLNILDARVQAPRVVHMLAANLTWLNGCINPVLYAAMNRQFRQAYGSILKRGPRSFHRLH
# T2 sequence (O14842 whole entry): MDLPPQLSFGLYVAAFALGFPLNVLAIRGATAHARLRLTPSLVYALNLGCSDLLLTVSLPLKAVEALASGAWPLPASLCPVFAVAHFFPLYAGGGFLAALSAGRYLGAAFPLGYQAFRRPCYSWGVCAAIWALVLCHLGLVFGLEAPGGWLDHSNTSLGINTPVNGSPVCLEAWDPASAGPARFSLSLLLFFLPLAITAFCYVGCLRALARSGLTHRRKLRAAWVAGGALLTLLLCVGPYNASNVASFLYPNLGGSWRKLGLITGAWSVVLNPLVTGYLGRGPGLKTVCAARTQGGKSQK
Compound,EC50 [1] [µM],other results
C#CCCSc1nc(O)cc(O)n1,8.85,
CC(C)(C)OC(=O)N1CCC(OCc2nc(-c3ccncc3)no2)CC1,,EC50 [2]: 5.13 µM
Oc1cc(C(F)(F)F)nc(SCCCCc2ccccc2)n1,> 100,
CCCCCCCCCc1cc(O)cc(O)n1,,Activity [3]: inactive; Activity [4]: inactive; Activity [5]: inactive; Activity [6]: inactive; Cmax [7]: 229 ng/mL; AUC(0-t) at 24 h [8]: 399 ng·h/mL; bioavailability [9]: 24.3%
N#CCCCCc1nc(O)cc(O)n1,> 100,
CCCCCCSc1nc(OCCCCCCCO)cc(=O)[nH]1,> 100,
CCCCCCSc1nc(O)cc(=O)n1C,> 100,
CCCC(=O)[O-].[Na+] [SODIUM BUTYRATE],,EC50 [10]: 10.1 µM
CC/C=C\C/C=C\C/C=C\C/C=C\C/C=C\C/C=C\CCC(=O)O [DOCONEXENT],,EC50 [11]: 11.7 µM
Nc1cc(N)nc(SCCCCc2ccccc2)n1,> 100,
CCCCCCOc1cc(O)nc(SCCCCCC)n1,> 100,

# More lines, main results first:
EC50 [1] [µM],Compound,other results
> 100,Nc1cc(O)nc(SCCCCc2ccccc2)n1,
> 100,Cc1cc(O)nc(SCCCCc2ccccc2)n1,
> 100,OCCCCCCCCSc1nc(O)cc(O)n1,
0.454,CCCCCCc1nc(O)cc(O)n1,
0.938,CC/C=C\CCSc1nc(O)cc(O)n1,
> 100,CCCCCCSc1nc(O)cc(=O)n1Cc1ccccc1,
> 100,Cc1c(O)nc(SCCCCc2ccccc2)nc1O,
